{
  "source": "patent US4439426A",
  "about": "“Semisynthetic macrolidic antibiotics, intermediate compounds for their preparation and related pharmaceutical compositions containing them” (priority 1981, dated 1984)",
  "assay_in_all_cases": "Bacteriostatic power in solid medium (MIC)",
  "type_in_all_cases": "cell-based",
  "key": {"[1]": {"tested_on": "Micrococcus luteus ATCC 9341 LRP 6", "details": "Micrococcus luteus, ATCC9341, read-out: Minimum inhibiting concentration", "summary_of_the_method": "(§1)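 The strain set covered aerobic plus anaerobic bacteria, both Gram-staining groups, and potency was recorded as the minimum inhibiting concentration.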"}, "[2]": {"tested_on": "Corynebacterium diphteriae LRP 24", "details": "Corynebacterium, LRP24, read-out: Minimum inhibiting concentration", "summary_of_the_method": "as §1"}, "[3]": {"tested_on": "Streptococcus pneumoniae ATCC 6303 LRP 35", "details": "Streptococcus pneumoniae, ATCC6303, read-out: Minimum inhibiting concentration", "summary_of_the_method": "as §1"}, "[4]": {"tested_on": "Escherichia coli LRP 50", "details": "Escherichia coli, LRP50, read-out: Minimum inhibiting concentration", "summary_of_the_method": "as §1"}, "[5]": {"tested_on": "Neisseria gonorrhoeae ATCC 19424 LRP 214", "details": "Neisseria gonorrhoeae, ATCC19424, read-out: Minimum inhibiting concentration", "summary_of_the_method": "as §1"}, "[6]": {"tested_on": "Mycoplasma hominis I ATCC 14027 LRP 211", "details": "Metamycoplasma hominis, ATCC14027, read-out: Minimum inhibiting concentration", "summary_of_the_method": "as §1"}},
  "data": [
    {"smiles": "CC[C@H]1OC(=O)[C@H](C)[C@@H](O[C@H]2C[C@@](C)(OC)[C@@H](O)[C@H](C)O2)[C@H](C)[C@@H](O[C@@H]2O[C@H](C)C[C@H](N(C)C)[C@H]2O)[C@](C)(O)C[C@](C)(F)C(=O)[C@H](C)[C@@H](O)[C@]1(C)O", "note": "[P-80206, (8S)-8-fluoroerythromycin A]", "values": [
      {"measurement": "MIC", "setting": "[1]", "value": 0.006, "unit": "µg/mL"},
      {"measurement": "MIC", "setting": "[2]", "value": 0.012, "unit": "µg/mL"},
      {"measurement": "MIC", "setting": "[3]", "value": 0.024, "unit": "µg/mL"},
      {"measurement": "MIC", "setting": "[4]", "value": 12.5, "unit": "µg/mL"},
      {"measurement": "MIC", "setting": "[5]", "value": 0.049, "unit": "µg/mL"},
      {"measurement": "MIC", "setting": "[6]", "value": 25, "unit": "µg/mL"}
    ]}
  ]
}
